Paper PMC3372625 (Journal of Controlled Release, 2012)

Experiments:
cells = settings: cited from earlier work
H9C2 cells [1] = assay: Reactive oxygen species; type: cell-based; settings: various concentrations of CoCl2; figure 2b
H9C2 cells [2] = assay: Cell viability; type: cell-based; settings: in the presence of CoCl2; figure 2c

| Compound | cytotoxicity (cells) | generation of ROS (H9C2 cells [1]) | CoCl2 toxicity (cell viability) (H9C2 cells [2]) |
| --- | --- | --- | --- |
| Branched poly(ethylenimine) [PEI] | less than 10% | – | – |
| [Cl][Co][Cl] [CoCl2, cobalt chloride] | – | dependent on the concentration of CoCl2 up to 25 μmol | no artifact caused by CoCl2 toxicity |
